Experimental data from ChEMBL document CHEMBL6103650, “Hybrid Molecules of Benzothiazole and Hydroxamic Acid as Dual-Acting Biofilm Inhibitors with Antibacterial Synergistic Effect against Pseudomonas aeruginosa Infections” (J Med Chem, 2025).
The source made the active and inactive calls. The calls are words filed in the database; no cut-off is given here.

Assays:
Pseudomonas aeruginosa [1] = experiment: Antibiofilm activity against Pseudomonas aeruginosa PA1121 assessed as inhibition of biofilm formation incubated for 24 hrs by crystal violet staining based analysis; type: functional, organism-based
Pseudomonas aeruginosa [2] = experiment: Antibiofilm activity against Pseudomonas aeruginosa PA1129 assessed as inhibition of biofilm formation incubated for 24 hrs by crystal violet staining based analysis; type: functional, organism-based
Pseudomonas aeruginosa [3] = experiment: Antivirulence activity in Pseudomonas aeruginosa PAO1 assessed as reduction in pyocyanin at 10 uM production incubated for 24 hrs relative to control; type: functional; design: scale not given: the % may be the effect or the level left
[4] = Inhibition of quorum sensing system in Pseudomonas aeruginosa PAO1-pqsa-gfp assessed as reduction in fluorescence intensity at 0.3125 to 10 uM measured upto 16 hrs by GFP reporter strain assay; conditions: dose 0.3125-10 µM
Pseudomonas aeruginosa [5] = experiment: Anti-motility activity against Pseudomonas aeruginosa PAO1 assessed as reduction in swarming motility incubated for 24 hrs; type: functional, organism-based; conditions: dose 0.3125-10 µM
Pseudomonas aeruginosa [6] = experiment: Anti-motility activity against Pseudomonas aeruginosa PAO1 assessed as reduction in swimming motility incubated for 24 hrs; type: functional, organism-based; conditions: dose 0.3125-10 µM
Pseudomonas aeruginosa [7] = experiment: Anti-motility activity against Pseudomonas aeruginosa PAO1 assessed as reduction in pili formation at 0.3125 to 10 uM incubated for 16 hrs by SEM analysis; type: functional, organism-based; conditions: dose 0.3125-10 µM
[8] = Hemolytic activity in rabbit red blood cells at < 40 uM; type: toxicity, cell-based, Oryctolagus cuniculus; conditions: erythrocyte
RAW264.7 = experiment: Cytotoxicity against mouse RAW264.7 cells assessed as reduction in cell viability at < 100 uM incubated for 24 hrs by MTT assay; type: toxicity, cell-based; conditions: raw264.7, 24 h
[9] = Toxicity in zebrafish assessed as survival rate at <100 uM measured upto 120 hrs; design: species or system Danio rerio; conditions: in vivo
Pseudomonas aeruginosa [10] = experiment: Synergistic […] activity against Pseudomonas aeruginosa PAO1 assessed as fractional inhibitory concentration index measured for 20 hrs in presence of tobramycin by microdilution checkboard assay; type: functional
Pseudomonas aeruginosa [11] = experiment: Antibacterial activity against Pseudomonas aeruginosa PAO1 infected in BALB/c mouse wound infection model assessed as reduction in wound area at 2.5 uM administered to wound once a day for 3 days and measured after 9 days in dropwise manner in presence of Tob; type: functional; design: scale not given: the % may be the effect or the level left; conditions: time 12 day
[12] = Toxicity in BALB/c mouse assessed as change in body weight; conditions: in vivo
[13] = Toxicity in BALB/c mouse assessed as heart damage by H and E staining based analysis; type: tissue-based; conditions: in vivo
[14] = Toxicity in BALB/c mouse assessed as liver damage by H and E staining based analysis; type: tissue-based; conditions: in vivo
Pseudomonas aeruginosa [15] = experiment: Antibacterial activity against Pseudomonas aeruginosa PAO1 infected in BALB/c mouse wound infection model assessed as bacterial survival rate in wound at 1 mg/mL administered to wound once a day for 3 days in dropwise manner; type: functional; conditions: PAO1, 72 h, time 3 day
[16] = Toxicity in BALB/c mouse wound infection model assessed as change in body weight measured for 9 days; conditions: in vivo, 216 h, time 9 day
[17] = Toxicity in BALB/c mouse wound infection model assessed as kidney damage measured for 9 days by H and E staining based analysis; type: tissue-based; conditions: in vivo, 216 h, time 9 day

For `COc1ccc2nc(NCC(=O)NCCCCC(=O)NO)sc2c1`, the Activity (Pseudomonas aeruginosa [1]) was “Active”, the Activity (Pseudomonas aeruginosa [2]) was “Active” and the Activity (Pseudomonas aeruginosa [3]) was 42%. For the same compound, the inhibition [4] was “Active”, the Activity (Pseudomonas aeruginosa [5]) was “Dose-dependent-effect” and the Activity (Pseudomonas aeruginosa [6]) was “Dose-dependent-effect”. The Activity (Pseudomonas aeruginosa [7]) was “Active”, the Activity [8] was “Non-toxic” and the Activity (RAW264.7) was “Non-toxic”. The Activity [9] was “Non-toxic”, the “fractional inhibitory concentration index (FICI)” value (Pseudomonas aeruginosa [10]) was 0.29 and the Activity (Pseudomonas aeruginosa [11]) was 35%. The Activity [12] was “Non-toxic”, the Activity [13] was “Non-toxic” and the Activity [14] was “Non-toxic”. The survival at 1000 µg/mL (Pseudomonas aeruginosa [15]) was 0%, the Activity [16] was “Non-toxic” and the Activity [17] was “Non-toxic”.
